Laboratory results from paper PMC10460844, “Real‐Time Monitoring of Multitarget Antimicrobial Mechanisms of Peptoids Using Label‐Free Imaging with Optical Diffraction Tomography” (Advanced Science, 2023).
Square brackets hold non-standard residues; d marks the D form. Peptide text beside a SMILES is read from it. Gly(N(CH2)2(3-indolyl)) = O=C(O)CNCCc1c[nH]c2ccccc12; Nspe = C[C@H](NCC(=O)O)c1ccccc1; Nlys = NCCCCNCC(=O)O

Legend:
Type in all cases: cell-based
[1] = system: HaCaT human keratinocytes; assay: MTS cytotoxicity assay; conditions: 24 h exposure in DMEM, concentration killing 50% of cells
Experimental: 4. Cell culture and cytotoxicity test using MTS assay
(Seoul, South Korea), human keratinocytes (HaCaT) were provided by the Skin Research Institute R&D Center of Amore Pacific Company (Yongin, South Korea). All cells were grown in Dulbecco's modified Eagle’s medium (DMEM) supplemented with 10% fetal bovine serum at 37 °C in an atmosphere containing 5% CO2. The 3-(4,5-dimethylthiazol-2- […]
assays were used to determine the effects of peptoids on cell growth.[4] Aliquots (100 µL) of media containing 1.3×10^4 MRC-5 cells/mL or 3×10^4 HaCaT cells/mL were distributed into each well of a 96-well plate (Eppendorf, Hamburg, Germany). The cells were allowed to attach and were grown in a humidified atmosphere containing 5% CO2 at 37 °C for 24 h.
When the cell density reached approximately 70% confluency, the medium was replaced with serial dilutions of the peptoid stock in DMEM and incubated for an additional 24 h. […] The MTS-formazan products in viable cells were measured at 490 nm using a microplate reader, and the percentage of cell viability (%) was calculated by comparing readings to the values of untreated wells. Percentage values of cell viability were calculated as A/(A control)×100, where A is the absorbance of the test well and A control is the average absorbance of wells containing untreated cells. […]

[2] = system: E. coli ATCC 25922; conditions: ODT, 30 min treatment; buforin-II 25 µM, melittin 25 µM, 29 4 × MIC
Experimental: Three‐dimensional (3D) optical diffraction tomography (ODT) and fluorescence images of live bacterial cells were obtained using an HT‐2H Mach−Zehnder interferometric microscope, combining both ODT and fluorescence imaging into a single unit (Tomocube, Daejon, South Korea). 3D Fluorescence imaging was carried out, using three light sources (385, 470, and 565 nm) via serial fluorescence image acquisition in multiple planes followed by 3D deconvolution. 3D correlative imaging, using a combination of ODT and fluorescence imaging was performed using commercial software (TomoStudioTM, Tomocube) as described previously^[ [23c] ^] Bacterial cells were grown overnight and diluted (≈10^7 CFU mL^−1) in cation‐adjusted MHB2 media. The cells were loaded onto 50 mm imaging dishes with a #1.5H glass coverslip bottom (TomoDish, Tomocube) that were precoated with 0.01% (w/v) poly‐L‐lysine (Sigma‐Aldrich) in water. After 30 min incubation at room temperature, the coverslips were washed twice with PBS (pH 7.4) to remove unattached cells, and the media was replaced with PBS for the duration of the imaging. To monitor the change in bacterial morphology, bacterial cells were treated with a peptoid (or with control AMPs) in PBS containing FM4‐64 (10 µg mL^−1) or propidium iodide (10 µg mL^−1). To analyze 3D refractive index (RI) tomograms, individual bacteria were captured using ODT equipped with a digital micromirror device (Tomocube). In more detail, the light scattered by the bacterial cells was collected by an objective lens (NA = 1.2, water dipping, UPLSAPO 60XW, Olympus) and recorded by a digital image sensor (CMOS camera, FL3‐U313Y3M‐C, FLIR Systems). Using a field retrieval algorithm, the amplitude and phase images were retrieved from the obtained multiple holograms, and then the 3D RI distribution was determined.
The analysis tool in the TomoStudio software (Tomocube) was used to measure specific values, including the refractive index (RI) and the cell volume of bacteria. These values were determined from RI increments (RII) of 0.190 fL pg^−1, which is known as a representative value and was assumed to be the same for most proteins.^[ [46] ^]

[3] = system: E. coli ATCC 25922; assay: Bacterial respiration assay (oxygen consumption rate); conditions: at MIC concentration, Seahorse XFe96, M9 + 10 mM glucose
Experimental: 11. Bacterial respiration assay
Figure S12. Real-time changes in oxygen consumption rate (OCR, in picomoles of molecular oxygen per minute) in response to treatment with peptoid 29, ampicillin (Amp), and chloramphenicol (Cam) in E. coli measured on a Seahorse XFe 96 extracellular flux analyzer.
OCR changes in cells treated with 29 over time (2.5 min intervals). b) Comparison of OCR responses induced by 29, Amp, and Cam treatment detected at 2.5 min intervals. The vertical line with azure color indicates the injection point of each antibiotic into the cultures. All data represent the mean ± SEM of 5-8 replicates.
Bacterial respiration assays
Cellular oxygen consumption rate (OCR) of E. coli ATCC 25922 was measured using a Seahorse XFe96 Extracellular Flux Analyzer (Agilent) as published previously.[9] Briefly, after overnight culture in LB, bacterial cells were diluted 1:200 into fresh M9 media (M6030, Sigma) and incubated for an additional 3 h at 37 °C. To conduct the measurements, bacteria were diluted to OD600 of 0.02 in M9 supplemented with 10 mM glucose. 90 μL of this cell suspension was loaded into a 96-well microplate precoated with poly-D-lysine (100 μg/mL, Sigma). […] OCR values were quantified every 2.5 min (mix and measure for 30 sec and 2 min, respectively) for an additional 48 cycles, and normalized to bacterial density […]

C[C@@H](c1ccccc1)N(CC(N)=O)C(=O)CN(C(=O)CN(CCCCN)C(=O)CN(C(=O)CN(C(=O)CN(CCCCN)C(=O)CN(C(=O)CN(C(=O)CN(CCCCN)C(=O)CN(C(=O)CN(C(=O)CNCCCCN)[C@@H](C)c1ccccc1)[C@@H](C)c1ccccc1)[C@@H](C)c1ccccc1)[C@@H](C)c1ccccc1)[C@@H](C)c1ccccc1)[C@@H](C)c1ccccc1)[C@@H](C)c1ccccc1 [peptoid 1, reference compound] (H-[Nlys][Nspe][Nspe][Nlys][Nspe][Nspe][Nlys][Nspe][Nspe][Nlys][Nspe][Nspe]-NH2)
LC50 HaCaT [1]: 7.3 µM

C[C@@H](c1ccccc1)N(CC(=O)N(CCCCN)CC(=O)N(CCc1c[nH]c2ccccc12)CC(=O)N(CCc1c[nH]c2ccccc12)CC(N)=O)C(=O)CN(CCCCN)C(=O)CN(CCCCN)C(=O)CN(C(=O)CN(C(=O)CN(CCCCN)C(=O)CN(C(=O)CN(C(=O)CNCCCCN)[C@@H](C)c1ccccc1)[C@@H](C)c1ccccc1)[C@@H](C)c1ccccc1)[C@@H](C)c1ccccc1 [peptoid 29] (H-[Nlys][Nspe][Nspe][Nlys][Nspe][Nspe][Nlys][Nlys][Nspe][Nlys][Gly(N(CH2)2(3-indolyl))][Gly(N(CH2)2(3-indolyl))]-NH2)
change of cell volume [2]: notable reduction in cell volume
change of mean RI value versus control cells [2]: significantly increased mean RI values
time after which OCR converged to zero [3]: 30 min
